Laboratory results from paper PMC6315541, “Nile Tilapia Derived Antimicrobial Peptide TP4 Exerts Antineoplastic Activity Through Microtubule Disruption” (Marine Drugs, 2018).

How the values were obtained:
[1] = system: microtubule network (α-Tubulin) in A549 cells; assay: Immunocytochemistry of microtubule network and peptide uptake in A549 cells; format: cell-based, human; details: for effect on microtubule network (α-Tubulin ICC): FITC-labeled mutants
Experimental: (§1) To examine whether TP4 may affect microtubule dynamics, A549 cells were treated with TP4, and cytoskeletal elements were analyzed by immunocytochemistry (ICC). […] We then asked whether TP4 treatment may influence tubulin protein levels by performing Western blots on lysates from A549 cells that had been treated with vehicle or TP4. […] We next conducted a microtubule regrowth assay to further address whether TP4 may disrupt microtubule polymerization. TP4 was applied to A549 cells that had been treated with or without Nocodazole (20 μM) treatment for 6 h, which completely depolymerizes the microtubule network. The repolymerization of microtubules was then initialized by the addition of fresh recovery medium, and regrowth was analyzed by ICC.
While the reduced toxicity may result from impaired binding to tubulin, it is also possible that such effects may be caused by conformational changes in the TP4 mutants, see Supplementary Figure S1C,D, which prevent intracellular penetration. To test this possibility, ICC was conducted to evaluate the cellular localization and the effects on microtubules. […] For both Gly and Ala substitution mutants, FITC-labeled TP4 mutants were able to be taken up intracellularly, see Figure 6B, panels MT-1 to MT-6. However, the microtubule network was only affected in MT-1- and MT-4-treated cells and not the other mutant-treated groups, as shown in Figure 6B.
Figure 6 Loss of cancer-killing ability in TP4 mutants. (A) Cell viability in A549 cells was determined by the adenosine triphosphate (ATP) assay following treatment with varying doses of TP4 and TP4 mutants for 24 h. Multiple wells were analyzed for each assay. Results represent the mean ± SD. Statistical comparisons between groups were performed using two-way ANOVA: a, not significant; b, p < 0.05; d, p < 0.001. Statistical analyses are shown in Supplementary Table S1. (B) Cells were stained for TP4 (WT panel), FITC (MT-1 to MT-6 panels), α-Tubulin, and F-actin. Hoechst33342 was used for nuclei staining. Boxed regions are magnified in the furthest right panels. […] Bar: 20 μm.
Cells were stained with TP4 (1:1000), FITC (1:500, ThermoFisher Scientific, clone 1F8-1E4), α-Tubulin (1:500), and appropriate Alexa Flour conjugated secondary antibody (1:500; ThermoFisher Scientific, Eugene, OR, USA). Hochest33342 was used for nuclear staining, and Alexa Fluor 647-conjugated phalloidin (1:200, Thermo Fisher Scientific, Eugene, OR, USA) was used to stain F-actin. For the confocal microscopic analysis, samples were mounted with fluorescent mounting medium (ProLong Gold Antifade Reagent, ThermoFisher Scientific, Eugene, OR, USA) and images were obtained with a FV3000 laser-scanning confocal microscope (Olympus), using a 60 × objective lens (Plapon 60 × OSC2, N.A. 1.4, oil) with the 4′,6-diamidino-2-phenylindole (DAPI) ([…]), green fluorescent protein (GFP) (EX 470, EM 525 for enhanced GFP (EGFP)), and Cy5 ([…]) emission filters. FV31S software (Olympus, Tokyo, Japan) was used for image acquisition.

[2] = system: α-Tubulin protein level in A549 cells; assay: Western blot of α-Tubulin protein level in A549 cells; format: cell-based, human; details: TP4 vs vehicle, Figure 2B
Experimental: as §1
Figure 2 TP4 disrupts the microtubule network in cancer cells. (A) Cells were stained for α-Tubulin and F-actin. Hoechst33342 was used to stain nuclei. Arrows indicate cells with negative α-Tubulin staining. Bar: 20 μm. (B) Total lysates from cells with mock (labeled C) or TP4 treatment (labeled T) were analyzed by Western blot using antibodies against GAPDH and α-Tubulin. Quantification of the α-Tubulin signal normalized to GAPDH is shown. Mr is the molecular weight. […] Bar: 20 μm (D) Quantification of the number of cells with Tubulin-positive and Tubulin-negative staining. […]

What does the source list for “FIHHIIGGLFSAGKAIHRLIRRRRR [TP4, synthesized Nile tilapia-derived antimicrobial peptide, Tilapia piscidin 4]”?
effect on microtubule network (α-Tubulin ICC; F-actin not affected) ([1]; A549 cells treated with TP4, Figure 2A): clearly affected; effect on microtubule network (α-Tubulin ICC) ([1]; A549 cells, TP4 6.71 μM, 3 h, Figure 6B): microtubule defects were clearly observed; effect on microtubule network (α-Tubulin ICC) ([1]; A549 cells, TP4 6.71 μM, 3 h, Figure 6B, listed as WT): microtubule abnormalities were observed; intracellular uptake (ICC, TP4 antibody or FITC) ([1]; A549 cells, TP4 6.71 μM, 3 h, mutants FITC-labeled, Figure 6B): peptide penetration; level of α-Tubulin protein (normalized to GAPDH) [2]: not significantly affected
